Two compounds from patent US9879243B2, “Culture medium for cell growth and transfection” (LIFE TECHNOLOGIES CORPORATION, priority 2001, dated 2018) can be followed below.

One assay has as its system Sp2/0 cells. Kind of assay: Effect of replacement compounds on the growth of Sp2/0 cells in CD Hybridoma medium without transferrin, three passages. In kind it is cell-based. To be noted: third passage.
In another assay the test system is CHO cells. Kind of assay: Effect of replacement compounds on the growth of CHO cells in CD CHO medium without transferrin, three passages. The assay is classed as cell-based, Chinese hamster. Particulars: third passage. The essentials: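 CHO cells seeded at 1×10^5 viable cells/mL in transferrin-free CD CHO medium, 37 °C, 8% CO2, subcultured every 4 days for three passages. Compounds tested alone or complexed with ferric chloride or ferrous sulfate at 25, 50 and 100 μM; growth as mean percentage of the 5 μg/mL holo-transferrin control at the third passage, duplicate cultures.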

The test system of another assay is 293 cells. Briefly: β-galactosidase expression after transfection (pCMV-SPORT-β-gal, LIPOFECTAMINE 2000) of 293 cells in monolayer culture, 24-well plates. The assay is classed as cell-based, human. To be noted: Table 8, replacement compounds 25 μM in test media, 24 hrs post-transfection. On the procedure:
When cultured in suspension, cells were split to 3×10^5 viable cells per ml at each passage. On the week of transfection cells were seeded at 3×10^5 viable cells per ml. After ˜48 hrs of growth (day 2) cells were vortexed for 30 seconds and counted and appropriate volumes used for transfection as described in procedures below.
In addition, the base media comprises 2.4 g/L NaHCO3, 2.98 g/L Hepes, 4 mM L-glutamine and 3 ml/L PLURONIC F-68 (Invitrogen Corp., Carlsbad, Calif.).
The osmolarity is adjusted to from about 275-310 mOsm, preferably about 280 mOsm and the pH is adjusted to from about 7.0 to about 7.45 preferably about 7.4 respectively.
Three wells were set up for each treatment. A volume of media corresponding to 3×10^6 viable cells was centrifuged. The supernatant was removed and the cells re-suspended in 600 μl test media. Each well of a 24 well plate received 200 μl of the re-suspended cells.
To prepare the nucleic acid for the transfection experiments, 93 μl test media+3 μl DNA+24 μl LIPOFECTAMINE 2000 were combined in a microfuge tube and complexed for 30 minutes. A 40 μl aliquot of complex was added to each well. 250 μl test media was added to each well five hours after addition of complex. The final cell concentration was 1×10^6 viable cells per well; the final DNA concentration was 1 μg per 1×10^6 viable cells and the final LIPOFECTAMINE 2000 concentration was 8 μl per 1×10^6 viable cells.
24 hrs post-transfection, samples were collected for β-galactosidase quantitation. The contents of duplicate wells were pooled (i.e. ˜2×10^6 cells for the assay) for each sample and transferred to a microfuge tube. The cells were centrifuged, the supernatant was removed and the cells were re-suspended in 1 ml of D-PBS. The cells were pelleted a second time and re-suspended in 1 ml of D-PBS. The samples were then stored at −70° C. Prior to the assay for β-galactosidase, samples were freeze-thawed a total of five times.
293 cells were grown in monolayer culture in the presence of the various replacement compounds indicated and transfection experiments performed as described above. The results are shown in Table 8 and the values are β-galactosidase activity expressed as nanograms of β-galactosidase per 2×10^6 cells. A comparison was made between the transfection efficiency of DNA complexes formed in D-MEM medium and DNA complexes formed in test medium. […]
For cells transfected in 24-well plates, cells densities used were 1×10^6 viable cells per well.

[1] abbreviates: 25 μM, control 5 μg/mL human holo-transferrin.

Take `CCc1occc(=O)c1O` [2-Ethyl-3-Hydroxy-4-Pyrone]: the “mean percentage of control growth” value in the assay on Sp2/0 cells (setting [1]) is reported as 0 percentage of control growth; in the assay with Sp2/0 cells (50 μM), 75 percentage of control growth; in the assay on Sp2/0 cells (100 μM), 116 percentage of control growth; in the assay with CHO cells (setting [1]) it was 9 percentage of control growth; with CHO cells (50 μM) it was 60 percentage of control growth; in the assay with CHO cells (100 μM), 113 percentage of control growth. Also, the “β-galactosidase activity; D-MEM used for complexing, Test media to re-suspend cells” value in the assay on 293 cells is 378 nanograms of β-galactosidase per 2×10^6 cells. Also, the “β-galactosidase activity; Test Media used for complexing and to re-suspend cells” value in the assay with 293 cells is on record as 1827 nanograms of β-galactosidase per 2×10^6 cells.
As for “Diethylenetriamine Penta-Acetic Acid•Ferrous Sulfate”, the “mean percentage of control growth” value in the assay on Sp2/0 cells (setting [1]) is given as 54 percentage of control growth; with Sp2/0 cells (50 μM), 90 percentage of control growth; with Sp2/0 cells (100 μM) it was 91 percentage of control growth; in the assay on CHO cells (setting [1]), 135 percentage of control growth; with CHO cells (50 μM), 137 percentage of control growth; with CHO cells (100 μM) it was 147 percentage of control growth. The “β-galactosidase activity; D-MEM used for complexing, Test media to re-suspend cells” value in the assay with 293 cells is 234 nanograms of β-galactosidase per 2×10^6 cells. For the same compound, the “β-galactosidase activity; Test Media used for complexing and to re-suspend cells” value in the assay with 293 cells was 720 nanograms of β-galactosidase per 2×10^6 cells.
